Reference: US8778837B2, “Use of active substance combinations for controlling animal pests” (priority 2007, dated 2014)
Where “and” joins values, the source holds several entries; their conditions need not be identical. Identical values can stand only once.

Columns and labels:
Type in all cases: in vivo
Myzus persicae = Myzus persicae test (cabbage leaf dip)
Excerpt: (§1) The activity to be expected for a given combination of two active substances can be calculated as follows (cf. Colby, S. R., “Calculating Synergistic and Antagonistic Responses of Herbicide Combinations”, Weeds 15, pages 20-22, 1967):
(§2) • X means the degree of destruction expressed in % of the untreated control when using active substance A at an application rate of m ppm or m g/ha, • Y means the degree of destruction expressed in % of the untreated control when using active substance B at an application rate of n ppm or n g/ha, and • E means the degree of destruction expressed in % of the untreated control when employing active substances A and B at application rates of m and n ppm or m and n g/ha, then
(§3) If the actual insecticidal degree of destruction is greater than calculated, the combination is superadditive regarding its destruction, i.e. a synergistic effect is present. In this case, the degree of destruction which is actually observed must exceed the value calculated on the basis of the above formula for the expected degree of destruction (E).
(§4) Solvent: 7 parts by weight of dimethylformamide
(§5) Emulsifier: 2 parts by weight of alkylaryl polyglycol ether
(§6) To prepare a suitable preparation of active substance, 1 part by weight of active substance is mixed with the stated amounts of solvent and emulsifier, and the concentrate is diluted to the desired concentration with emulsifier-containing water.
Cabbage leaves (Brassica oleracea) which are severely infested with the green peach aphid (Myzus persicae) are treated by being dipped into the active substance preparation of the desired concentration.
After the desired period of time, the destruction is determined in %. Here, 100% means that all the aphids have been destroyed; 0% means that no aphids have been destroyed. The destruction rates which have been determined are entered in the Colby formula (see sheet 1).

Spodoptera frugiperda = Spodoptera frugiperda test (cabbage leaf dip)
Excerpt: as §1, §2, §3
Spodoptera frugiperda Test
as §4, §5, §6
Cabbage leaves (Brassica oleracea) are treated by being dipped into the active substance preparation of the desired concentration and are populated with armyworm caterpillars (Spodoptera frugiperda) while the leaves are still moist.
(§7) After the desired period of time, the destruction is determined in %. Here, 100% means that all the caterpillars have been destroyed; 0% means that no caterpillars have been destroyed. The destruction rates which have been determined are entered in the Colby formula (see sheet 1).

[1] = tested on: Phaedon cochleariae larvae; experiment: Phaedon cochleariae larvae test (cabbage leaf dip)
Excerpt: as §1, §2, §3
Phaedon Cochleariae Larvae Test
as §4, §5, §6
Cabbage leaves (Brassica oleracea) are treated by being dipped into the active substance preparation of the desired concentration and are populated with mustard beetle larvae (Phaedon cochleariae) while the leaves are still moist.
After the desired period of time, the destruction is determined in %. Here, 100% means that all the beetle larvae have been destroyed; 0% means that no beetle larvae have been destroyed. The destruction rates which have been determined are entered in the Colby formula (see sheet 1).

[2] = tested on: Plutella xylostella, sensitive strain; experiment: Plutella xylostella test (sensitive strain, cabbage leaf dip)
Excerpt: as §1, §2, §3
Plutella-Xylostella Test (Sensitive Strain)
as §4, §5, §6
Cabbage leaves (Brassica oleracea) are treated by being dipped into the active substance preparation of the desired concentration and are populated with diamondback moth caterpillars (Plutella xylostella, sensitive strain) while the leaves are still moist.
as §7

Question: `N#Cc1nn(-c2c(Cl)cc(C(F)(F)F)cc2Cl)c(N)c1[S+]([O-])C(F)(F)F` (stereo not shown) [Fipronil, fipronil] was tested. Which “Destruction in % after 6 d” value (Myzus persicae; 100 ppm) did it give?
Answer: Its value is 65%.

Question: And the “Destruction in % after 6 d” value (Spodoptera frugiperda; 0.8 ppm)?
Answer: The value was 5%.

Question: Which results are given for `N#Cc1ccccc1NC(=O)c1snc(Cl)c1Cl` [Isotianil, 3,4-dichloro-2′-cyano-1,2-thiazole-5-carboxanilide]?
Answer: Destruction in % after 1 d (Myzus persicae; 500 ppm): 0%; Destruction in % after 6 d (Myzus persicae; 500 ppm): 10% and 0%; Destruction in % after 6 d ([1]; 500 ppm): 0%; Destruction in % after 6 d ([2]; 500 ppm): 0%; Destruction in % after 3 d (Spodoptera frugiperda; 500 ppm): 10%

Question: For `CN1COCN(Cc2cnc(Cl)s2)/C1=N\[N+](=O)[O-]` [Thiamethoxam], which “Destruction in % after 1 d” value (Myzus persicae; 0.8 ppm) is on record?
Answer: Its value is 75%.

Question: What about the “Destruction in % after 6 d” value ([1]; 20 ppm) of the same molecule?
Answer: Its value is 80%.

Question: And the “Destruction in % after 6 d” value (Spodoptera frugiperda; 20 ppm)?
Answer: Its value is 70%.

Question: What does the source list for `CN/C(=N\[N+](=O)[O-])NCc1cnc(Cl)s1` [Clothianidin, clothianidin]?
Answer: Destruction in % after 6 d (Myzus persicae; 0.8 ppm): 55%; Destruction in % after 6 d ([1]; 4 ppm): 65%; Destruction in % after 6 d ([2]; 20 ppm): 25%; Destruction in % after 3 d (Spodoptera frugiperda; 4 ppm): 95%

Question: Which results are given for `O=[N+]([O-])NC1=NCCN1Cc1ccc(Cl)nc1` [Imidacloprid]?
Answer: Destruction in % after 6 d (Myzus persicae; 0.8 ppm): 75%; Destruction in % after 6 d ([1]; 20 ppm): 75%

Question: Which results are given for `N#C/N=C1\SCCN1Cc1ccc(Cl)nc1` [Thiacloprid]?
Answer: Destruction in % after 6 d (Myzus persicae; 0.8 ppm): 45%; Destruction in % after 6 d ([1]; 4 ppm): 0%; Destruction in % after 6 d ([2]; 20 ppm): 45%
